Measurements published in patent publication US8507469B2, “Azetidin compounds suitable for treating disorders that respond to modulation of the serotonin 5-HT6 receptor” (Abbott GmbH & Co. KG, priority 2007, dated 2013).
Where a name gives a salt, the structure may show the parent alone.

Legend:
h-5-HT6 receptor = biological target: T1, h-5-HT6 receptor (Homo sapiens, UniProt P50406); experiment: 5-HT6 receptor binding assay (displacement of [3H]-LSD); settings: HEK293 membranes, 1 nM [3H]-LSD
T1 construct: expressed in transfected cells
T1 sequence (P50406 whole entry): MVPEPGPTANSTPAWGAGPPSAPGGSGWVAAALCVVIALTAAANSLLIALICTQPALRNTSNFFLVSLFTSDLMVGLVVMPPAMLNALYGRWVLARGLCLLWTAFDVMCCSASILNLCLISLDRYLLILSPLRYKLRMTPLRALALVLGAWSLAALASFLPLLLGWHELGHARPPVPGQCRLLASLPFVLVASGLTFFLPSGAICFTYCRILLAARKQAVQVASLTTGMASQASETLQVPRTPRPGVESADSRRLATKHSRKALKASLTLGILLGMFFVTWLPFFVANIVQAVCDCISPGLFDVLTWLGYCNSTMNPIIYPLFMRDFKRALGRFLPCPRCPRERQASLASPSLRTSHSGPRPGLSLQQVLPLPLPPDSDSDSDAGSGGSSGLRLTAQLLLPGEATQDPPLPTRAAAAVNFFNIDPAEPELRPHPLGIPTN
Experimental: (§1) Cells from stable clonal cell lines expressing the corresponding receptor (5-HT6, 1-adrenergic, dopamine D2 or histamine H1 receptors) were washed with PBS (w/o Ca^++, Mg^++) and harvested in PBS with 0.02% EDTA. The cells were collected by centrifugation at 500 g for 10 min. at 4° C., washed with PBS and centrifuged (500 g, 10 min. 4° C.). The pellets were stored at −80° C. until use. For membrane preparation, the thawed cell pellet was resuspended in ice-cold sucrose buffer (0.25 M sucrose, 10 mM Hepes (pH 7.4), 1 mM Phenylmethylsulfonyl fluoride (PMSF) in DMSO, […] Pepstatin-A, 3 mM EDTA, 0.025% Bacitracin) and homogenized with a Branson Sonifier W-250 (Settings: Timer 4; Output Control 3; Duty Cycle constant; 2 to 3 cycles). Cell disruption was checked with the aid of a microscope. Remaining unbroken cells were pelleted at 1.000 g for 10 min. at 4° C. The sucrose buffer supernatant was then centrifuged at 60.000 g for 1 h at 4° C. (Beckman Ultrazentrifuge XL 80). The pellet was resuspended in 30 ml ice-cold Tris buffer (20 mM TRIS (pH 7.4), […] Pepstatin A, 0.1 mM PMSF, 3 mM EDTA) by pipetting through a 10 ml serological pipet and centrifuged for 1 h at 4° C. at 60.000 g. A final resuspension was performed in a small volume of ice-cold Tris buffer (see above) by pressing through a serological pipet followed by ultrasonic treatment with a Branson Sonifier W-250 (Settings: Timer 1; Output Control 3; Duty Cycle constant; 1 cycle). Protein concentration was determined (BCA-Kit; Pierce) and aliquots stored at −80° C. or in liquid nitrogen for long-term storage.
(§2) All receptor binding experiments were carried out in the corresponding assay buffer in a total volume of 200 μl in the presence of various concentrations of test compound (10^−5 M to 10^−9 M, tenfold serial dilution, duplicate determinations). The assays were terminated by filtration on polyethylenimine (PEI 0.1% or 0.3%) presoaked Packard Unifilter Plates (GF/C or GF/B) with a Tomtec MachIII U 96well-plate harvester. After the plates had been dried for 2 h at 55° C. in a drying chamber scintillation cocktail (BetaPlate Scint; PerkinElmer) was added. Radioactivity was measured in a Microbeta Trilux two hours after the addition of the scintillation mixture. Data derived from liquid scintillation counting were analysed by iterative non-linear regression analysis with the use of the Statistical Analysis System (SAS): a program similar to “LIGAND” as described by Munson and Rodbard (Analytical Biochemistry 107, 220-239 (1980).
HEK293 cells stably expressing the h-5-HT6 receptor (NCBI Reference Sequence XM 001435) were cultured in RPMI1640 medium supplemented with 25 mM HEPES, 10% fetal calf serum and 1-2 mM glutamine. The membrane preparation was performed as described in section 1. […] Non-specific binding was defined with 1 μM methiothepin. The binding reaction was carried out for 3.5 h at room temperature. During the incubation, the plates were shaken on a plate shaker at 100 rpm and terminated by filtration on Packard Unifilter GF/C (0.1% PEI) plates, followed by 2 wash cycles with ice-cold 50 mM Tris-HCl, 5 mM CaCl2.
(§3) Data derived from liquid scintillation counting were analyzed by iterative non-linear regression analysis with the use of the Statistical Analysis System (SAS): a program similar to “LIGAND” as described by Munson and Rodbard (Anal. Biochem. 1980, 107, 220-239). Fitting was performed according to formulae described by Feldman (Anal. Biochem. 1972, 48, 317-338). IC50, nH and Ki values were expressed as geometrical mean.

dopamine D2 receptor = biological target: T2, dopamine D2 receptor (Homo sapiens, UniProt P14416); experiment: Dopamine D2 receptor binding assay (displacement of [125I]-iodospiperone); settings: for Ki: HEK293 membranes, 0.01 nM [125I]-iodospiperone
T2 construct: expressed in transfected cells
T2 sequence (P14416 whole entry): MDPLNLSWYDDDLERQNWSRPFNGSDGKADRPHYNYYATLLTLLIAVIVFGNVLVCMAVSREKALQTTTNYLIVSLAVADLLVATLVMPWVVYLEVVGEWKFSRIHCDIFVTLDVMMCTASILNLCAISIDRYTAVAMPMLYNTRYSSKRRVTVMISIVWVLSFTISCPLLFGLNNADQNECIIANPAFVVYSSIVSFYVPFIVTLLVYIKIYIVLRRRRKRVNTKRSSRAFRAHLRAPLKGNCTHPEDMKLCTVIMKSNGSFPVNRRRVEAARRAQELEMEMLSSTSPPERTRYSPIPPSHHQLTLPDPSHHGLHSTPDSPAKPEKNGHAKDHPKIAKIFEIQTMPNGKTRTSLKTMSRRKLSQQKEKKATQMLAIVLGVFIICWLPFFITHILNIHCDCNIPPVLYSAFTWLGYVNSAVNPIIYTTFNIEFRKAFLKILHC
Experimental: as §1, §2
HEK293 cells stably expressing the dopamine D2 receptor (NCBI Reference Sequence NM_000795) were cultured in RPMI1640 medium supplemented with 25 mM HEPES, 10% fetal calf serum and 1-2 mM glutamine. The membrane preparation was performed as described in section 1. […] On the day of the assay, the membranes were thawed, diluted in assay buffer (50 mM Tris-HCl, 120 mM NaCl, 5 mM MgCl2, 5 mM KCl, 1.5 mM CaCl2, pH 7.4) to a concentration of 15 μg protein/assay and homogenized by gentle vortexing. For inhibition studies, 0.01 nM [^125I]-iodospiperone (PerkinElmer Life Sciences, NEX284) was incubated in the presence of various concentrations of test compound in assay buffer. Non-specific binding was defined with 1 μM haloperidol. The binding reaction was carried out for 1 h at room temperature and terminated by filtration on Packard Unifilter GF/B (0.1% PEI) plates, followed by 6 wash cycles with an ice-cold 7% polyethylenglycol solution.
as §3

α1-adrenergic receptor = biological target: T3, α1-adrenergic receptor (Homo sapiens, UniProt P35348); experiment: α1-adrenergic receptor binding assay (displacement of [3H]-prazosine); settings: CHO-K1 membranes, 0.1 nM [3H]-prazosine
T3 construct: expressed in transfected cells
T3 sequence (P35348 1-475 isoform P35348-2): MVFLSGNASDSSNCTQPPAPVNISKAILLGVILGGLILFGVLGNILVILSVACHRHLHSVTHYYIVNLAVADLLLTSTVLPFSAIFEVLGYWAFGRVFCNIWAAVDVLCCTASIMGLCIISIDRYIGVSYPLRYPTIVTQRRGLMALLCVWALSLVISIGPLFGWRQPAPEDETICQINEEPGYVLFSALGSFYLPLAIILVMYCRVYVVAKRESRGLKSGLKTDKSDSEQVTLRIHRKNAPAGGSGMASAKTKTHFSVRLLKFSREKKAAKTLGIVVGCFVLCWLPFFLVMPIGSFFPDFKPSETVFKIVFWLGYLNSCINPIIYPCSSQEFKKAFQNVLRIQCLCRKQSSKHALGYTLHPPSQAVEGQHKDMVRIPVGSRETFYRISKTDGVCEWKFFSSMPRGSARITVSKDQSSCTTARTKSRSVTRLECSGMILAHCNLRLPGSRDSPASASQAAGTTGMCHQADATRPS
Experimental: as §1, §2
CHO-K1 cells stably expressing the 1-adrenergic receptor (NCBI Reference Sequence NM_033303) were cultured in RPMI1640 medium supplemented with 25 mM HEPES, 10% fetal calf serum and 1-2 mM glutamine. The membrane preparation was performed as described in section 1. […] On the day of the assay, the membranes were thawed, diluted in assay buffer (50 mM Tris-HCl, pH 7.4) to a concentration of 4 μg protein/assay and homogenized by gentle vortexing. […] Non-specific binding was defined with 1 μM phentolamine. The binding reaction was carried out for 1 h at room temperature and terminated by filtration on Packard Unifilter GF/C (0.1% PEI) plates, followed by 3 wash cycles with ice-cold assay buffer.
as §3

histamine H1 receptor = histamine H1 receptor (Homo sapiens, UniProt P35367); experiment: H1 receptor binding assay (displacement of [3H]-pyrilamine); settings: CHO-K1 membranes, 1 nM [3H]-pyrilamine
Chain of histamine H1 receptor (P35367 whole entry): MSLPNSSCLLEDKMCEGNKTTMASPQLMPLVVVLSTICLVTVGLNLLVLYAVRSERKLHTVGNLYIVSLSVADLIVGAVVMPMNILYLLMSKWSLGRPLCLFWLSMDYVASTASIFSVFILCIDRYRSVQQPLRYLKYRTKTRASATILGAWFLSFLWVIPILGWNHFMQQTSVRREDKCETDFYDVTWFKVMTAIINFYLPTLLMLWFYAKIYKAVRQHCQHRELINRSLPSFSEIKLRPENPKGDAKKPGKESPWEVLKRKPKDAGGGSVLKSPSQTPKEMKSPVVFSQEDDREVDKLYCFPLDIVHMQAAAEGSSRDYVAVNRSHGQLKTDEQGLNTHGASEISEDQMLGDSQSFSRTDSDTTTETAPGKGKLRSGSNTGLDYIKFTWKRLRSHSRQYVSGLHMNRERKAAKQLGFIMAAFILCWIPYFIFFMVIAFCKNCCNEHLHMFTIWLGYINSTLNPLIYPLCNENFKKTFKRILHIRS
Experimental: as §1, §2
CHO-K1 cells stably expressing the histamine H1 receptor (Euroscreen-ES-390-C, NCBI Reference Sequence NM_000861) were cultured in RPMI1640 medium supplemented with 25 mM HEPES, 10% fetal calf serum and 1-2 mM glutamine. The membrane preparation was performed as described in section 1. […] On the day of the assay, the membranes were thawed, diluted in assay buffer (50 mM Na2HPO4, 50 mM KH2PO4, pH 7.4) to a concentration of 6 μg protein/assay and homogenized by gentle vortexing. […] The binding reaction was carried out for 50 minutes at room temperature and terminated by filtration on Packard Unifilter GF/C (0.3% PEI) plates, followed by 2 wash cycles with ice-cold assay buffer.
as §3

Ki (h-5-HT6 receptor) [nM] | Ki (dopamine D2 receptor) [nM] | Ki (α1-adrenergic receptor) [nM] | Ki (histamine H1 receptor) [nM] | Kd (dopamine D2 receptor; saturation binding experiments, HEK293 D2 membranes, read-out: KD of radioligand) [nM] | Molecule
< 5 | > 10000 | > 1000 | > 1000 |  | O=S(=O)(c1ccccc1OC(F)(F)F)n1ccc2cc(C3CNC3)ccc21 [compound 23, 5-Azetidin-3-yl-1-(2-trifluoromethoxybenzenesulfonyl)-1H-indole]
< 5 | > 1000 | > 250 | > 1000 |  | CCCN1CC(c2ccc3c(ccn3S(=O)(=O)c3cccc(C(F)(F)F)c3)c2)C1 [compound 25, 5-(1-propyl-azetidin-3-yl)-1-(3-trifluoromethylbenzenesulfonyl)-1H-indole, hydrochloride]
< 5 | > 1000 | > 250 | > 1000 |  | CCCN1CC(c2ccc3c(ccn3S(=O)(=O)c3cccc(OC(F)(F)F)c3)c2)C1 [compound 26, 5-(1-Propylazetidin-3-yl)-1-(3-trifluoromethoxybenzenesulfonyl)-1H-indole, hydrochloride]
< 5 | > 1000 | > 250 | > 1000 |  | CCCN1CC(c2ccc3c(ccn3S(=O)(=O)c3cccc(OC(F)F)c3)c2)C1 [compound 27, 5-(1-Propylazetidin-3-yl)-1-(3-difluoromethoxybenzenesulfonyl)-1H-indole, hydrochloride]
< 10 | > 1000 |  |  |  | CCN1CC(c2ccc3c(ccn3S(=O)(=O)c3ccccc3)c2)C1 [compound 28, 5-(1-Ethylazetidin-3-yl)-1-benzenesulfonyl-1H-indole, hydrochloride]
< 10 | > 1000 |  |  |  | CN1CC(c2ccc3c(ccn3S(=O)(=O)c3ccccc3)c2)C1 [compound 29, 5-(1-Methylazetidin-3-yl)-1-benzenesulfonyl-1H-indole, hydrochloride]
< 5 | > 1000 | > 1000 | > 1000 |  | O=S(=O)(c1cccc(C(F)(F)F)c1)N1CCc2cc(C3CNC3)ccc21 [compound 30, 5-Azetidin-3-yl-1-(3-trifluoromethyl-benzenesulfonyl)-2,3-dihydro-1H-indole, hydrochloride]
< 10 | > 10000 | > 10000 | > 10000 |  | O=S(=O)(c1ccccc1)n1ccc2cc(C3CNC3)cnc21 [compound 46, 5-Azetidin-3-yl-1-benzenesulfonyl-1H-pyrrolo[2,3-b]pyridine, formic acid salt]

The next lines start with the molecule.

Molecule | Ki (h-5-HT6 receptor) [nM] | Ki (dopamine D2 receptor) [nM] | Ki (α1-adrenergic receptor) [nM] | Ki (histamine H1 receptor) [nM] | Kd (dopamine D2 receptor; saturation binding experiments, HEK293 D2 membranes, read-out: KD of radioligand) [nM]
O=S(=O)(c1ccccc1)n1ccc2cc(C3CNC3)ccc21 [compound 2, 5-azetidin-3-yl-1-benzenesulfonyl-1H-indole, hydrochloride] | < 5 | > 10000 | > 1000 | > 10000 | 
O=S(=O)(c1ccc(-c2cnco2)cc1)n1ccc2cc(C3CNC3)ccc21 [compound 3, 5-azetidin-3-yl-1-(4-oxazol-5-yl-benzenesulfonyl)-1H-indole, hydrochloride] | < 250 | > 1000 |  |  | 
CCCN1CC(c2ccc3c(ccn3S(=O)(=O)c3ccc(OC(F)F)cc3)c2)C1 [compound 4, 1-(4-Difluoromethoxy-benzenesulfonyl)-5-(1-propyl-azetidin-3-yl)-1H-indole, hydrochloride] | < 50 | > 1000 | > 250 |  | 
CCCN1CC(c2ccc3c(ccn3S(=O)(=O)c3ccccc3)c2)C1 [compound 5, 1-benzenesulfonyl-5-(1-propylazetidin-3-yl)-1H-indole, hydrochloride] | < 5 | > 1000 | > 250 | > 1000 | 
CCCN1CC(c2ccc3c(ccn3S(=O)(=O)c3ccc(-c4cnco4)cc3)c2)C1 [compound 6, 1-(4-oxazol-5-yl-benzenesulfonyl)-5-(1-propylazetidin-3-yl)-1H-indole, hydrochloride] | < 250 | > 1000 |  |  | 
O=S(=O)(c1ccccc1)N1CCc2cc(C3CNC3)ccc21 [compound 7, 5-azetidin-3-yl-1-benzenesulfonyl-2,3-dihydro-1H-indole, hydrochloride] | < 5 | > 10000 | > 1000 | > 1000 | 
O=S(=O)(c1ccc(-c2cnco2)cc1)N1CCc2cc(C3CNC3)ccc21 [compound 8, 5-azetidin-3-yl-1-(4-oxazol-5-yl-benzenesulfonyl)-2,3-dihydro-1H-indole] | < 250 | > 10000 |  |  | 
O=S(=O)(c1cccc(C(F)(F)F)c1)n1ccc2cc(C3CNC3)ccc21 [compound 19, 5-azetidin-3-yl-1-(3-trifluoromethyl-benzenesulfonyl)-1H-indole, hydrochloride] | < 5 | > 10000 | > 1000 | > 10000 | 
O=S(=O)(c1cccc(OC(F)(F)F)c1)n1ccc2cc(C3CNC3)ccc21 [compound 20, 5-Azetidin-3-yl-1-(3-trifluoromethoxybenzenesulfonyl)-1H-indole, hydrochloride] | < 5 | > 1000 | > 1000 | > 10000 | 
O=S(=O)(c1cccc(OC(F)F)c1)n1ccc2cc(C3CNC3)ccc21 [compound 21, 5-Azetidin-3-yl-1-(3-difluoromethoxybenzenesulfonyl)-1H-indole, hydrochloride] | < 5 | > 1000 | > 1000 | > 10000 | 
O=S(=O)(c1cccnc1)n1cc(C2CNC2)c2ccccc21 [compound 24, Azetidin-3-yl-1-(pyridine-3-sulfonyl)-1H-indole, hydrochloride] | < 10 | > 10000 |  |  | 
iodospiperone [[^125I]-iodospiperone, reference compound] |  |  |  |  | 0.22
